Results on 19 compounds are retold here after US8628771B2, “CA IX-specific inhibitors” (Institute of Virology Slovak Academy of Sciences, priority 2002, dated 2014).

One data set relates to MDCK-CA IX cells. Kind of data set: Extracellular pH (pHe) of sulfonamide-treated MDCK-CA IX cells. The format is cell-based, canine. The following applies: 48 hours; for effect on extracellular acidification: hypoxia (2% O2); for effect on the normoxic pHe: normoxia. The protocol: To maintain the standard conditions, the cells were always plated in 3 ml of culture medium at a density of 0.8-1×10^6 per 6 cm dish 24 hours before the transfer to hypoxia (2% O2 and 5% CO2 balanced with N2) generated in a Napco 7000 incubator. Parallel normoxic dishes were incubated in air with 5% CO2.
Compound 6 sulfonamide [4-(2-aminoethyl)-benzenesulfonamide] was from Sigma-Aldrich. […] The sulfonamides were dissolved in PBS with 20% DMSO at 100 mM concentration and diluted in a culture medium to a required final concentration just before their addition to cells. The cells were incubated for 48 hours in hypoxia and normoxia, respectively, the pH of the culture medium was measured and the binding of the FITC-labeled Compound 92 to living cells, washed three times with PBS, was viewed by a Nikon E400 epifluorescence microscope.

The next data set concerns the target T1, hCA II (Homo sapiens, UniProt P00918).
T1 construct: made in house; host or cells: Escherichia coli BL21 (DE3)
Kind of data set: CA esterase activity assay, isozyme hCA II. The format is biochemical.

For another data set, the target named is T2, bCA IV (Bos taurus, UniProt Q95323).
T2 construct: CA IV was isolated from bovine lung microsomes as described by Maren et al; from tissue; host or cells: bovine lung microsomes
T2 sequence (Q95323 19-284): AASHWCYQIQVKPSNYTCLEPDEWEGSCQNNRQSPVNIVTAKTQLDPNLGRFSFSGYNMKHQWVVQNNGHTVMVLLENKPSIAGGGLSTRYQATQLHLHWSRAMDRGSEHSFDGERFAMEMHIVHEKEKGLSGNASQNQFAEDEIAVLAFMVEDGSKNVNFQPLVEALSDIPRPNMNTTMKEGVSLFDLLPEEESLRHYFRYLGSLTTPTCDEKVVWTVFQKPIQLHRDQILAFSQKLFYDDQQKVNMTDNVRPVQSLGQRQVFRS
Description: CA esterase activity assay, isozyme bCA IV. The note with it: from bovine lung microsomes, read-out: KI bCA IV. It is filed as biochemical, bovine.

In another data set the target is hCA IX (Homo sapiens, UniProt Q16790). Description: CA CO2 hydrase activity assay, tumor-associated isozyme hCA IX.
A further data set addresses T3, hCA I (Homo sapiens, UniProt P00915).
T3 construct: made in house; host or cells: Escherichia coli BL21 (DE3)
Description: CA esterase activity assay, isozyme hCA I. The following applies: human (cloned) isozymes, read-out: KI hCA I. It is filed as biochemical.

The next data set relates to human red cells. The following applies: for [sulfonamide] in red blood cells, EI / [sulfonamide] in red blood cells, ES / [sulfonamide] in red blood cells, HPLC: human, 2 mM, pH 7.4.
The mark [1] stands for this setting: Table 3, human (cloned) isozymes, esterase assay method, read-out: KI hCA II.
The mark [2] stands for this setting: read-out: KI hCA IX, Table 3, catalytic domain of the human, cloned isozyme, CO2 hydrase assay method.

As a reminder, the melting point is the temperature of the solid-liquid transition. One may read the Ki as the dissociation constant of the complex between target and ligand, obtained from inhibition or displacement.

Molecules are shown by their SMILES. Counter-ions that a name gives are not always drawn. Like-named read-outs stand apart in the source and are kept apart here. Bounds are passed on as bounds.

T3 sequence (P00915 whole entry): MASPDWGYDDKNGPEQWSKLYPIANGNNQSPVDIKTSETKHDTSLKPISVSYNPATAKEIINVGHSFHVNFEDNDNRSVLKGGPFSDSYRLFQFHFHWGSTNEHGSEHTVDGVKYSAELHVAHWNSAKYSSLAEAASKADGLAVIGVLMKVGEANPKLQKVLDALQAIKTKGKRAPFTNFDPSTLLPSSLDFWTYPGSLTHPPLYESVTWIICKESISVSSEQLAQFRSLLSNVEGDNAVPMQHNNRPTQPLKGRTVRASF
Description for hCA II: Human CA I and CA II cDNAs were expressed in Escherichia coli strain BL21 (DE3) from the plasmids pACA/hCA I and pACA/hCA II described by Lindskog's group [54].
Non-enzymatic hydrolysis rates were always subtracted from the observed rates. […] Inhibitor and enzyme solutions were preincubated together for 10 min at room temperature prior to assay, in order to allow for the formation of the E-I complex. The inhibition constant KI was determined as described in references [44, 76].
Description for hCA IX: An SX.18MV-R Applied Photophysics stopped-flow instrument has been used for assaying the CA CO2 hydration activity assays [44]. […] Inhibitor and enzyme solutions were preincubated together for 10 min at room temperature prior to assay, in order to allow for the formation of the E-I complex.

For `Cc1cc(C)[n+](-c2ccc(S(=O)(=O)Nc3nnc(S(N)(=O)=O)s3)cc2)c(C)c1` (as salt: perchlorate) [Compound 71, 1-N-[5-Sulfamoyl-1,3,4-thiadiazol-2-yl-(aminosulfonyl-4-phenyl)]-2,4,6-trimethyl-pyridinium perchlorate], the melting point is over 300 °C.

As to `Cc1cc(C(C)C)[n+](-c2ccc(S(=O)(=O)Nc3nnc(S(N)(=O)=O)s3)cc2)c(C(C)C)c1` (as salt: perchlorate) [Compound 73, 1-N-[5-Sulfamoyl-1,3,4-thiadiazol-2-yl-(aminosulfonyl-4-phenyl)]-2,6-di-iso-propyl-4-methylpyridinium perchlorate], the melting point was 278 to 279 °C.

As for `Cc1cc(-c2ccccc2)cc(C)[n+]1-c1ccc(S(=O)(=O)Nc2nnc(S(N)(=O)=O)s2)cc1` (as salt: perchlorate) [Compound 75, 1-N-[5-Sulfamoyl-1,3,4-thiadiazol-2-yl-(aminosulfonyl-4-phenyl)]-2,6-dimethyl-4-phenylpyridinium perchlorate], the melting point was over 300 °C.

Take `CCc1cc(-c2ccccc2)cc(CC)[n+]1-c1ccc(S(=O)(=O)Nc2nnc(S(N)(=O)=O)s2)cc1` (as salt: perchlorate) [Compound 76, 1-N-[5-Sulfamoyl-1,3,4-thiadiazol-2-yl-(aminosulfonyl-4-phenyl)]-2,6-diethyl-4-phenylpyridinium perchlorate]: the melting point was 267 to 268 °C.

Turning to `CCCc1cc(-c2ccccc2)cc(CCC)[n+]1-c1ccc(S(=O)(=O)Nc2nnc(S(N)(=O)=O)s2)cc1` (as salt: perchlorate) [Compound 77, 1-N-[5-Sulfamoyl-1,3,4-thiadiazol-2-yl-(aminosulfonyl-4-phenyl)]-2,6-di-n-propyl-4-phenylpyridinium perchlorate], the melting point lay in the range of 235 to 237 °C.

Turning to `CC(C)c1cc(-c2ccccc2)cc(C(C)C)[n+]1-c1ccc(S(=O)(=O)Nc2nnc(S(N)(=O)=O)s2)cc1` (as salt: perchlorate) [Compound 79, 1-N-[5-Sulfamoyl-1,3,4-thiadiazol-2-yl-(aminosulfonyl-4-phenyl)]-2,6-di-isopropyl-4-phenylpyridinium perchlorate], the melting point is 278 to 279 °C.

For `Cc1cc(-c2ccccc2)cc(-c2ccccc2)[n+]1-c1ccc(S(=O)(=O)Nc2nnc(S(N)(=O)=O)s2)cc1` (as salt: perchlorate) [Compound 80, 1-N-[5-Sulfamoyl-1,3,4-thiadiazol-2-yl-(aminosulfonyl-4-phenyl)]-2-methyl-4,6-diphenylpyridinium perchlorate], the melting point lay within 298 to 299 °C.

Regarding `CCc1cc(-c2ccccc2)cc(-c2ccccc2)[n+]1-c1ccc(S(=O)(=O)Nc2nnc(S(N)(=O)=O)s2)cc1` (as salt: perchlorate) [Compound 81, 1-N-[5-Sulfamoyl-1,3,4-thiadiazol-2-yl-(aminosulfonyl-4-phenyl)]-2-ethyl-4,6-diphenylpyridinium perchlorate], the melting point lay within 254 to 255 °C.

`CCCc1cc(-c2ccccc2)cc(-c2ccccc2)[n+]1-c1ccc(S(=O)(=O)Nc2nnc(S(N)(=O)=O)s2)cc1` (as salt: perchlorate) [Compound 82, 1-N-[5-Sulfamoyl-1,3,4-thiadiazol-2-yl-(aminosulfonyl-4-phenyl)]-2-n-propyl-4,6-diphenylpyridinium perchlorate] showed a melting point of 214 to 215 °C.

`CC(C)c1cc(-c2ccccc2)cc(-c2ccccc2)[n+]1-c1ccc(S(=O)(=O)Nc2nnc(S(N)(=O)=O)s2)cc1` (as salt: perchlorate) [Compound 83, 1-N-[5-Sulfamoyl-1,3,4-thiadiazol-2-yl-(aminosulfonyl-4-phenyl)]-2-iso-propyl-4,6-diphenylpyridinium perchlorate]: the melting point was in the range of 186 to 188 °C.

On to `CCCCc1cc(-c2ccccc2)cc(-c2ccccc2)[n+]1-c1ccc(S(=O)(=O)Nc2nnc(S(N)(=O)=O)s2)cc1` (as salt: perchlorate) [Compound 84, 1-N-[5-Sulfamoyl-1,3,4-thiadiazol-2-yl-(aminosulfonyl-4-phenyl)]-2-n-butyl-4,6-diphenylpyridinium perchlorate], for which the melting point was in the range of 241 to 243 °C.

The compound `CC(C)(C)c1cc(-c2ccccc2)cc(-c2ccccc2)[n+]1-c1ccc(S(=O)(=O)Nc2nnc(S(N)(=O)=O)s2)cc1` (as salt: perchlorate) [Compound 85, 1-N-[5-Sulfamoyl-1,3,4-thiadiazol-2-yl-(aminosulfonyl-4-phenyl)]-2-tert-butyl-4,6-diphenylpyridinium perchlorate] yielded a melting point of 203 to 205 °C.

Regarding `NS(=O)(=O)c1nnc(NS(=O)(=O)c2ccc(-[n+]3c(-c4ccccc4)cc(-c4ccccc4)cc3-c3ccccc3)cc2)s1` (as salt: perchlorate) [Compound 87, 1-N-[5-Sulfamoyl-1,3,4-thiadiazol-2-yl-(aminosulfonyl-4-phenyl)]-2,4,6-triphenyl-pyridinium perchlorate], the melting point was over 300 °C.

Compound `NS(=O)(=O)c1nnc(NS(=O)(=O)c2ccc(-[n+]3c(-c4ccccc4)cccc3-c3ccccc3)cc2)s1` (as salt: perchlorate) [Compound 88, 1-N-[5-Sulfamoyl-1,3,4-thiadiazol-2-yl-(aminosulfonyl-4-phenyl)]-2,6-diphenylpyridinium perchlorate] returned a melting point of 218 to 220 °C.

The compound `Cc1cc(C)[n+](-c2ccc(S(=O)(=O)Nc3nnc(S(N)(=O)=O)s3)cc2)c(C)c1C` (as salt: perchlorate) [Compound 89, 1-N-[5-Sulfamoyl-1,3,4-thiadiazol-2-yl-(aminosulfonyl-4-phenyl)]-2,3,4,6-tetramethylpyridinium perchlorate] returned a melting point of over 300 °C.

As to `NCCc1ccc(S(N)(=O)=O)cc1` [Compound 6, 4-(2-aminoethyl)-benzenesulfonamide], in the data set with MDCK-CA IX cells, the “effect on extracellular acidification” value was “able to reduce the extracellular acidification” and the “effect on the normoxic pHe” value is given as “negligible”.

On to `Cc1cc(C)[n+](Cc2ccc(S(N)(=O)=O)cc2)c(C)c1` [Compound 39], for which the Ki stood at 50 nM on hCA II (Table 2, human (cloned) isozymes, read-out: KI hCA II); 92 nM on bCA IV (Table 2); 38 nM on hCA IX (read-out: KI hCA IX, Table 2, catalytic domain of the human, cloned isozyme); 7000 nM on hCA I (Table 2). Moreover, the “effect on extracellular acidification” value with MDCK-CA IX cells is “able to reduce the extracellular acidification”. For the same compound, the “effect on the normoxic pHe” value with MDCK-CA IX cells is on record as “negligible”.

For the compound `CCc1cc(-c2ccccc2)cc(CC)[n+]1-c1ccc(S(=O)(=O)Nc2nnc(S(N)(=O)=O)s2)cc1` [Compound 76, 1-N-[5-Sulfamoyl-1,3,4-thiadiazol-2-yl-(aminosulfonyl-4-phenyl)]-2,6-diethyl-4-phenylpyridinium perchlorate], the “amount detected within the blood red cells (membrane penetration)” value in the data set on human red cells is “detected only in very small amounts”. Further, the “[sulfonamide] in red blood cells, EI” value stood at 1.0 µM with human red cells (30 min) and 1.1 µM in the data set on human red cells (60 min). In addition, the “[sulfonamide] in red blood cells, ES” value with human red cells (30 min) stood at 1.1 µM; with human red cells (60 min), 1.2 µM. The entries for the “[sulfonamide] in red blood cells, HPLC” value with human red cells (30 min) and with human red cells (60 min) were 1.0 µM and 1.1 µM, respectively. In addition, the Ki was 0.21 nM on hCA II (setting [1]); 0.2 to 1.61 nM at hCA II (Tables 1 and 3, read-out: KI against CA II); 2.3 nM at bCA IV (Table 3, esterase assay method); 3 to 9 nM at hCA IX; 9 nM on hCA IX (setting [2]); 4 nM on hCA I (Table 3, esterase assay method).

With `Cc1cc(C)[n+](-c2ccc(S(=O)(=O)Nc3nnc(S(N)(=O)=O)s3)cc2)c(C)c1C` [Compound 89, 1-N-[5-Sulfamoyl-1,3,4-thiadiazol-2-yl-(aminosulfonyl-4-phenyl)]-2,3,4,6-tetramethylpyridinium perchlorate], the “amount detected within the blood red cells (membrane penetration)” value in the data set with human red cells is recorded as “detected only in very small amounts”. For the same compound, the “[sulfonamide] in red blood cells, EI” value with human red cells (30 min) came out at 0.5 µM; with human red cells (60 min), 0.4 µM. The “[sulfonamide] in red blood cells, ES” value in the data set with human red cells (30 min) was 0.2 µM; with human red cells (60 min), 0.6 µM. For the same compound, the “[sulfonamide] in red blood cells, HPLC” value with human red cells (30 min) and in the data set with human red cells (60 min) was 0.3 µM throughout. Moreover, the inhibition constant (Ki) was 0.3 nM on hCA II (setting [1]); 2.4 nM on bCA IV (Table 3, esterase assay method); 3 to 9 nM at hCA IX; 5 nM on hCA IX (setting [2]); 3 nM at hCA I (Table 3, esterase assay method).
